Where a SMILES comes first, the peptide text is derived from it. Bridges are numbered along the chain shown (N, C = ends). [ ]: non-standard residue; d: D form. Phe(4-COOH) = N[C@@H](Cc1ccc(C(=O)O)cc1)C(=O)O; R8 = C=CCCCCCC[C@@](C)(N)C(=O)O; Cba = N[C@@H](CC1CCC1)C(=O)O; S5 = C=CCCC[C@](C)(N)C(=O)O
Assays:
[1] = Circular dichroism (CD) analysis of alpha-helicity; assay type: physicochemical; conditions: for Molar Ellipticity 50% TFE (222 in 50% TFE): CD buffer with 50% TFE; for Molar Ellipticity 50% TFE (222 in 50% TFE) / Molar Ellipticity Benign (222 in 0% TFE): 222 nm, 4° C.; for Molar Ellipticity Benign (222 in 0% TFE): benign CD buffer pH 2, 0% TFE; for % Helix benign compared to 50% TFE parent (CD): benign buffer; for Molar Ellipticity TFE-Molar Ellipticity Benign: difference 50% TFE minus benign
Procedure: To assay the helicity of peptidomimetic macrocycles, the compounds are dissolved in an aqueous solution (e.g. 50 mM potassium phosphate solution at pH 7, or distilled H2O, to concentrations of 25-50 μM). Circular dichroism (CD) spectra are obtained on a spectropolarimeter (e.g., Jasco J-710) using standard measurement parameters (e.g. temperature, 20° C.; wavelength, 190-260 nm; step resolution, 0.5 nm; speed, 20 nm/sec; accumulations, 10; response, 1 sec; bandwidth, 1 nm; path length, 0.1 cm). […] A Peltier temperature controller was used to maintain temperature control of the optical cell. Results are expressed as mean molar ellipticity [0] […] Peptide concentrations were determined by amino acid analysis. Stock solutions of peptides were prepared in benign CD buffer (20 mM phosphoric acid, pH 2). The stocks were used to prepare peptide solutions of 0.05 mg/ml in either benign CD buffer or CD buffer with 50% trifluoroethanol (TFE) for analyses in a 10 mm pathlength cell. […] The average of six scans was reported.

[2] = test system: SJSA-1 cells; experiment: Cell lysis by peptidomimetic macrocycles (LDH release); assay type: cell-based; conditions: 1 h at 37C
Procedure: On the day of the assay, media was exchanged with RPMI 1% FBS media, 90 uL of media per well.
10 mM stock solutions of the peptidomimetic macrocycles were prepared in 100% DMSO.
The negative control (non-lytic) sample was 0.5% DMSO alone and positive control (lytic) samples include 10 uM Melittin and 1% Triton X-100.
Cell plates were incubated for 1 hour at 37C. After the 1 hour incubation, the morphology of the cells is examined by microscope and then the plates were centrifuged at 1200 rpm for 5 minutes at room temperature. 40 uL of supernatant for each peptidomimetic macrocycle and control sample is transferred to clear assay plates.

[3] = biological target: MDM2 (Homo sapiens, UniProt Q00987); experiment: Competitive fluorescence polarization assay for MDM2; assay type: binding; conditions: competitive FP assay, MDM2; for IC50: read-out: IC50 (MDM2); for Ki: read-out: Ki (MDM2)
MDM2, sequence (Q00987 1-125): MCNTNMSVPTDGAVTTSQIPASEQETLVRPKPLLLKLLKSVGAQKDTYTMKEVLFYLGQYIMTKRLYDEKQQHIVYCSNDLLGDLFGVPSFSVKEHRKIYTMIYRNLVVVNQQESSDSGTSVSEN
Procedure: Dilute 1 mM (in 100% DMSO) of FAM labeled linear peptide with DMSO to 100 μM (dilution 1:10). Then, dilute from 100 μM to 10 μM with water (dilution 1:10) and then dilute with FP buffer from 10 μM to 40 nM (dilution 1:250). This is the working solution which will be a 10 nM concentration in well (dilution 1:4). […] Then, dilute from 5 mM to 500 μM with H2O (dilution 1:10) and then dilute with FP buffer from 500 μM to 20 μM (dilution 1:25).
Dilute 1 mM (in 100% DMSO) of FAM labeled linear peptide with DMSO to 100 μM (dilution 1:10). Then, dilute from 100 μM to 10 μM with water (dilution 1:10) and then dilute with FP buffer from 10 μM to 40 nM (dilution 1:250). This is the working solution which will be a 10 nM concentration in well (dilution 1:4). […] Dilute 10 mM (in 100% DMSO) with DMSO to 5 mM (dilution 1:2). Then, dilute from 5 mM to 500 μM with H2O (dilution 1:10) and then dilute with FP buffer from 500 μM to 20 μM (dilution 1:25). […] Transfer 10 μl of serial diluted unlabeled peptides to each well which is filled with 20 μl of 300 nM of protein. • 7. Add 10 μl of 10 nM (4×) of FAM labeled peptide into each well and incubate for 3 hr to read.

[4] = test system: Caspase 3; experiment: Caspase 3 detection assay in SJSA1 cells; assay type: cell-based; conditions: 48 h, Caspase 3 activation over DMSO-treated cells; for caspase 0.3 uM: 0.3 uM peptide; for caspase 3 uM: 3 uM peptide; for caspase 10 uM: 10 uM peptide; for caspase 30 uM: 30 uM peptide; for caspase 1 uM: 1 uM peptide
[5] = biological target: T1, MDMX (Homo sapiens, UniProt O15151); experiment: Competitive fluorescence polarization assay for MDMX; assay type: binding; conditions: competitive FP assay; for IC50: read-out: IC50 (MDMX); for Ki: read-out: Ki (MDMX)
T1 sequence (O15151 1-125): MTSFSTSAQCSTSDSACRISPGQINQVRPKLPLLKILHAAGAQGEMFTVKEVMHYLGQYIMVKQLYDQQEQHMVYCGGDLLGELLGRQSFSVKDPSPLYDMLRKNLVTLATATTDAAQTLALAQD

[6] = MCF-7 xenograft study, body weight, deaths and tolerability; assay type: in vivo, mice
From the text: A negative control stapled peptide.

[7] = test system: MCF-7 breast cancer xenograft; experiment: MCF-7 breast cancer xenograft study, tumor growth inhibition; conditions: 30 mg/kg 3×/wk iv
Procedure: This formulation was prepared once for the duration of the study.
Each group was assigned to a different treatment regimen.
During the dosing period the mice were weighed and tumors measured 1-2 times per week.

[8] = test system: SJSA-1 cells; experiment: Cell viability assay (MTT), SJSA-1; conditions: in words

Row | Structure (SMILES) | % Helix 50% TFE compared to 50% TFE parent (CD) [1] [%] | Molar Ellipticity 50% TFE (222 in 50% TFE) [1] [deg cm2 dmol-1] | Molar Ellipticity Benign (222 in 0% TFE) [1] [deg cm2 dmol-1] | % Helix benign compared to 50% TFE parent (CD) [1] [%] | Molar Ellipticity TFE-Molar Ellipticity Benign [1] [deg cm2 dmol-1] | 6.25 uM % Lysed cells (1 h LDH) [2] [%] | 25 uM % Lysed cells (1 h LDH) [2] [%] | 50 uM % Lysed cells (1 h LDH) [2] [%] | IC50 [3] [µM] | Ki [3] [µM] | caspase 0.3 uM [4] | caspase 3 uM [4] | caspase 10 uM [4] | caspase 30 uM [4] | IC50 [5] [µM] | Ki [5] [µM] | caspase 1 uM [4] | also measured
1 | CC(=O)N[C@@H](CC(C)C)C(=O)N[C@H](C(=O)N[C@@H](Cc1ccccc1)C(=O)N[C@]1(C)CCCCCCC=CCCC[C@@](C)(C(=O)N[C@@H](C)C(=O)N[C@@H](C)C(=O)N[C@@H](C)C(=O)N[C@H](C)C(N)=O)NC(=O)[C@H](CC(C)C)NC(=O)[C@H](CCC(N)=O)NC(=O)[C@H](C)NC(=O)[C@H](Cc2c[nH]c3ccccc23)NC(=O)[C@H](Cc2ccc(O)cc2)NC(=O)[C@H](C)NC1=O)[C@@H](C)O (single isomer, unassigned) [compound 230] | 123.9 | −17974 | −213.2 | 1.5 | −17760.8 | 0.5 | 0 | 3 | < 0.01 | < 0.01 | 1 | 2 | 3 | 11 | 0.01 to 0.1 | < 0.01 | – | –
2 | CC[C@H](C)[C@H](NC(=O)[C@H](C)NC(=O)[C@H](C)NC(=O)[C@]1(C)CCC/C=C/CCCCCC[C@@](C)(NC(=O)[C@H](Cc2ccccc2)NC(=O)[C@@H](NC(=O)[C@H](CC(C)C)NC(C)=O)[C@@H](C)O)C(=O)N[C@@H](CCC(=O)O)C(=O)N[C@@H](Cc2ccc(C(=O)O)cc2)C(=O)N[C@@H](Cc2c[nH]c3ccccc23)C(=O)N[C@@H](C)C(=O)N[C@@H](CCC(N)=O)C(=O)N[C@@H](CC2CCC2)C(=O)N1)C(=O)N[C@H](C)C(N)=O [SP249, Ac-L T F $er8 E F4coohWAQCba $e AA-I-a-NH2] (Ac-LTF[R8]E[Phe(4-COOH)]WAQ[Cba][S5]AAI[dA]-NH2; staple (E) 4-11) | – | – | – | – | – | – | – | – | – | – | – | – | – | – | – | – | – | mice died during treatment ([6]; […] 3×/wk iv, 10 mice per group): 4
3 | CC(=O)N[C@@H](CC(C)C)C(=O)N[C@H](C(=O)N[C@@H](C)C(=O)N[C@]1(C)CCCCCCC=CCCC[C@@](C)(C(=O)N[C@@H](CO)C(=O)N[C@@H](C)C(=O)N[C@@H](C)C(N)=O)NC(=O)[C@H](CC2CCC2)NC(=O)[C@H](CCC(N)=O)NC(=O)[C@H](C)NC(=O)[C@H](Cc2c[nH]c3ccccc23)NC(=O)[C@H](Cc2ccc(O)cc2)NC(=O)[C@H](CCC(=O)O)NC1=O)[C@@H](C)O [SP252] | – | – | – | – | – | – | – | – | – | – | – | – | – | – | – | – | – | TGI by Day 32 [7]: 88%; % BW Change ([6]; 30 mg/kg 3×/wk iv): +3.3%; No. with ≧10% BW Loss ([6]; 30 mg/kg 3×/wk iv): 0/10; No. with ≧20% BW Loss or death ([6]; 30 mg/kg 3×/wk iv): 0/10; tolerability of dosing regimen ([6]; 30 mg/kg 3×/wk iv, in words): well-tolerated; activity in the SJSA-1 in vitro viability assay [8]: no activity; activity in in vitro assays ([8]; in vitro assays not specified): no appreciable activity
4 | CC(=O)N[C@@H](CC(C)C)C(=O)N[C@H](C(=O)N[C@@H](Cc1ccccc1)C(=O)N[C@]1(C)CCCCCCC=CCCC[C@@](C)(C(=O)N[C@@H](CO)C(=O)N[C@@H](C)C(=O)N[C@@H](Cc2ccccc2)C(N)=O)NC(=O)[C@H](CC(C)C)NC(=O)[C@H](CCC(N)=O)NC(=O)[C@H](C)NC(=O)[C@H](Cc2c[nH]c3ccccc23)NC(=O)[C@H](Cc2ccc(O)cc2)NC(=O)[C@H](C)NC1=O)[C@@H](C)O [compound 7] (Ac-LTF[R8]AYWAQL[S5]SAF-NH2; staple 4-11) | 137.3 | −19921.4 | 124 | −0.9 | −20045.4 | 0 | 0 | 0 | 0.01 to 0.1 | < 0.01 | 0.93 | 5.08 | 21.7 | 23.96 | 0.01 to 0.1 | 0.01 to 0.1 | 1.4 | –
5 | CC(=O)N[C@@H](CC(C)C)C(=O)N[C@H](C(=O)N[C@@H](Cc1ccccc1)C(=O)N[C@]1(C)CCCCCCC=CCCC[C@@](C)(C(=O)N[C@@H](CO)C(=O)N[C@@H](C)C(=O)N[C@@H](C)C(N)=O)NC(=O)[C@H](CC(C)C)NC(=O)[C@H](CCC(N)=O)NC(=O)[C@H](C)NC(=O)[C@H](Cc2c[nH]c3ccccc23)NC(=O)[C@H](Cc2ccc(O)cc2)NC(=O)[C@H](C)NC1=O)[C@@H](C)O [compound 11] | 106.1 | −16623.4 | −398.2 | 2.5 | – | −2 | 2 | 3 | – | – | 1 | 5 | 23 | 33.5 | – | – | – | –
6 | CC(=O)N[C@@H](CC(C)C)C(=O)N[C@H](C(=O)N[C@@H](Cc1ccccc1)C(=O)N[C@]1(C)CCCCCCC=CCCC[C@@](C)(C(=O)N[C@@H](Cc2c[nH]cn2)C(=O)N[C@@H](Cc2c[nH]cn2)C(=O)N[C@@H](CC(C)C)C(=O)N[C@H](C)C(N)=O)NC(=O)[C@H](CC(C)C)NC(=O)[C@H](CCC(N)=O)NC(=O)[C@H](C)NC(=O)[C@H](Cc2c[nH]c3ccccc23)NC(=O)[C@H](Cc2ccc(O)cc2)NC(=O)[C@H](C)NC1=O)[C@@H](C)O [compound 43] (Ac-LTF[R8]AYWAQL[S5]HHL[dA]-NH2; staple 4-11) | 116.4 | −18247.4 | −15334.5 | 97.8 | 2912.9 | 0 | −1 | −1 | 0.01 to 0.1 | < 0.01 | – | – | – | – | 0.01 to 0.1 | 0.01 to 0.1 | – | –
7 | CCCC[C@H](NC(=O)[C@H](C)NC(=O)[C@H](C)NC(=O)[C@]1(C)CCC/C=C/CCCCCC[C@@](C)(NC(=O)[C@H](Cc2ccccc2)NC(=O)[C@@H](NC(=O)[C@H](CC(C)C)NC(C)=O)[C@@H](C)O)C(=O)N[C@@H](C)C(=O)N[C@@H](Cc2ccc(O)cc2)C(=O)N[C@@H](Cc2c[nH]c3ccccc23)C(=O)N[C@@H](C)C(=O)N[C@@H](CCC(N)=O)C(=O)N[C@@H](CC(C)C)C(=O)N1)C(=O)N[C@@H](C)C(N)=O [compound 69] | 148.2 | −21509.7 | −102.6 | 0.7 | – | 1 | −0.5 | 5 | 0.01 to 0.1 | < 0.01 | 4.34 | 16.39 | 26.59 | 26.11 | 0.1 to 1 | 0.01 to 0.1 | 9.51 | –
8 | CC[C@H](C)[C@H](NC(=O)[C@H](C)NC(=O)[C@H](C)NC(=O)[C@]1(C)CCC/C=C/CCCCCC[C@@](C)(NC(=O)[C@H](Cc2ccccc2)NC(=O)[C@@H](NC(=O)[C@H](CC(C)C)NC(C)=O)[C@@H](C)O)C(=O)N[C@@H](C)C(=O)N[C@@H](Cc2ccc(O)cc2)C(=O)N[C@@H](Cc2c[nH]c3ccccc23)C(=O)N[C@@H](C)C(=O)N[C@@H](CCC(N)=O)C(=O)N[C@@H](CC(C)C)C(=O)N1)C(=O)N[C@H](C)C(N)=O [compound 71] | 123.7 | −17957 | −121.2 | 0.8 | −17835.9 | 0 | 0 | 0 | 0.01 to 0.1 | < 0.01 | 0.95 | 3.68 | – | 23.52 | 0.1 to 1 | 0.01 to 0.1 | 1.02 | –
9 | CC(=O)N[C@@H](CC(C)C)C(=O)N[C@H](C(=O)N[C@@H](Cc1ccccc1)C(=O)N[C@]1(C)CCCCCCC=CCCC[C@@](C)(C(=O)N[C@@H](C)C(=O)N[C@@H](C)C(=O)N[C@@H](C)C(=O)N[C@@H](C)C(=O)N[C@H](C)C(N)=O)NC(=O)[C@H](CC(C)C)NC(=O)[C@H](CCC(N)=O)NC(=O)[C@H](C)NC(=O)[C@H](Cc2c[nH]c3ccccc23)NC(=O)[C@H](Cc2ccc(O)cc2)NC(=O)[C@H](C)NC1=O)[C@@H](C)O [compound 233] | 131.2 | −19032.6 | −477.9 | 3.3 | −18554.7 | 2.5 | 3.5 | 6 | – | – | 6 | 17 | 22 | 23 | – | – | 8 | –
